Experimental data as given in US5843889A, “Glycopeptide antibiotic derivatives” (Eli Lilly and Company, priority 1997, dated 1998).
Values after ≈ are worked out from the molar mass of the structure shown.

Experiments:
Format in all cases: cell-based
[1] = system: Entercoccus faecalis 2041; assay: MIC, standard broth micro-dilution assay
Procedure: (§1) The formula I compounds have in vitro and in vivo activity against Gram-positive pathogenic bacteria. The MIC's were determined using a standard broth micro-dilution assay.

[2] = system: Entercoccus gallinarum 245; assay: MIC, standard broth micro-dilution assay
Procedure: as §1

Pedicoccus acidilacti = assay: MIC, agar dilution on brain-heart infusion agar; conditions: Pedioccccus acidilacti (mean of 10)
Pediococcus pentosaceus = assay: MIC, agar dilution on brain-heart infusion agar; conditions: Pediococcus pentosaceus (mean of 2)
Leuconostoc lactis = assay: MIC, agar dilution on brain-heart infusion agar; conditions: Leuconostoc lactis (mean of 2)
[3] = system: Leuconostoc mesenteroides; assay: MIC, agar dilution on brain-heart infusion agar; conditions: Leuconostoc mesenteroides (mean of 4)
[4] = system: Leuconostoc pseudomesenteroides; assay: MIC, agar dilution on brain-heart infusion agar
Lactobacillus confusus = assay: MIC, agar dilution on brain-heart infusion agar
[5] = system: Entercoccus faecium 180-1; assay: MIC, standard broth micro-dilution assay
Procedure: (§2) The MIC's were determined using a standard broth micro-dilution assay.

Entercoccus faecium 180 = assay: MIC, standard broth micro-dilution assay
Procedure: as §2

Escherichia coli EC14 = assay: MIC, standard broth micro-dilution assay
Procedure: as §2

[6] = system: Haemophilus influenzae RD; assay: MIC, standard broth micro-dilution assay
Procedure: as §2

[7] = system: Staphylococcus aureus 446; assay: MIC, standard broth micro-dilution assay
Procedure: as §2

[8] = system: Staphylococcus aureus 447; assay: MIC, standard broth micro-dilution assay
Procedure: as §2

[9] = system: Staphylococcus aureus 489; assay: MIC, standard broth micro-dilution assay
Procedure: as §2

[10] = system: Staphylococcus aureus SA1199A; assay: MIC, standard broth micro-dilution assay
Procedure: as §2

[11] = system: Staphylococcus aureus SA1199; assay: MIC, standard broth micro-dilution assay
Procedure: as §2

[12] = system: Staphylococcus aureus X400; assay: MIC, standard broth micro-dilution assay
Procedure: as §2

[13] = system: Staphylococcus aureus X778; assay: MIC, standard broth micro-dilution assay
Procedure: as §2

[14] = system: Staphylococcus epidermidis 270; assay: MIC, standard broth micro-dilution assay
Procedure: as §2

[15] = system: Staphylococcus haemolyticus 105; assay: MIC, standard broth micro-dilution assay
Procedure: as §2

[16] = system: Staphylococcus haemolyticus 415; assay: MIC, standard broth micro-dilution assay
Procedure: as §2

[17] = system: Staphylococcus aureus S13E
Procedure: as §2

[18] = system: Staphylococcus aureus SA1199B
Procedure: as §2

Entercoccus faecalis 276 = assay: MIC, standard broth micro-dilution assay
Procedure: as §1

[19] = system: Staphylococcus aureus 491; assay: MIC, standard broth micro-dilution assay
Procedure: as §2

[20] = system: Streptococcus pneumoniae P1; assay: MIC, standard broth micro-dilution assay
Procedure: as §2

SMILES	MIC [1]	MIC [2]	MIC [5]	MIC (Entercoccus faecium 180)	MIC (Escherichia coli EC14)	MIC [6]	MIC [7]	MIC [8]	MIC [9]	MIC [10]	MIC [11]	MIC [12]	MIC [13]	MIC [14]	MIC [15]	MIC [16]	MIC [17]	MIC [18]	MIC (Entercoccus faecalis 276)	MIC [19]	other results
CNC(CC(C)C)C(=O)NC1C(=O)NC(CC(N)=O)C(=O)NC2C(=O)NC3C(=O)NC(C(=O)NC(C(=O)O)c4cc(O)cc(O)c4-c4cc3ccc4O)C(OC3CC(C)(N)C(O)C(C)O3)c3ccc(c(Cl)c3)Oc3cc2cc(c3OC2OC(CO)C(O)C(O)C2OC2CC(C)(NCc3ccc(OC(F)(F)F)cc3)C(O)C(C)O2)Oc2ccc(cc2Cl)C1O (stereo not shown) [Compound 6, 4-trifluoromethoxybenzyl]	≤ 0.06 µg/mL	≤ 0.06 µg/mL	–	–	–	–	–	–	–	–	–	–	–	–	–	–	–	–	–	–	MIC (Pedicoccus acidilacti): 4.3 µg/mL (≈ 2.43 µM); MIC (Pediococcus pentosaceus): 8.0 µg/mL (≈ 4.53 µM); MIC (Leuconostoc lactis): 8.0 µg/mL (≈ 4.53 µM); MIC [3]: 9.5 µg/mL (≈ 5.38 µM); MIC [4]: 16 µg/mL (≈ 9.06 µM); MIC (Lactobacillus confusus): 16 µg/mL (≈ 9.06 µM)
CNC(CC(C)C)C(=O)NC1C(=O)NC(CC(N)=O)C(=O)NC2C(=O)NC3C(=O)NC(C(=O)NC(C(=O)O)c4cc(O)cc(O)c4-c4cc3ccc4O)C(OC3CC(C)(N)C(O)C(C)O3)c3ccc(c(Cl)c3)Oc3cc2cc(c3OC2OC(CO)C(O)C(O)C2OC2CC(C)(NCc3c(O)ccc4ccccc34)C(O)C(C)O2)Oc2ccc(cc2Cl)C1O (stereo not shown) [Compound 44]	≤ 0.06 µg/mL	0.5 µg/mL (≈ 0.286 µM)	≤ 0.06 µg/mL	8 µg/mL (≈ 4.57 µM)	> 64 µg/mL	> 64 µg/mL	0.25 µg/mL (≈ 0.143 µM)	1 µg/mL (≈ 0.572 µM)	≤ 0.06 µg/mL	≤ 0.06 µg/mL	0.25 µg/mL (≈ 0.143 µM)	≤ 0.06 µg/mL	≤ 0.06 µg/mL	0.5 µg/mL (≈ 0.286 µM)	2 µg/mL (≈ 1.14 µM)	4 µg/mL (≈ 2.29 µM)	0.25 µg/mL (≈ 0.143 µM)	0.25 µg/mL (≈ 0.143 µM)	0.125 µg/mL (≈ 0.0715 µM)	–	–
CNC(CC(C)C)C(=O)NC1C(=O)NC(CC(N)=O)C(=O)NC2C(=O)NC3C(=O)NC(C(=O)NC(C(=O)O)c4cc(O)cc(O)c4-c4cc3ccc4O)C(OC3CC(C)(N)C(O)C(C)O3)c3ccc(c(Cl)c3)Oc3cc2cc(c3OC2OC(CO)C(O)C(O)C2OC2CC(C)(NCC3CC=CCC3)C(O)C(C)O2)Oc2ccc(cc2Cl)C1O (stereo not shown) [Compound 47, 3,4 cyclohexenylmethyl]	≤ 0.06 µg/mL	16 µg/mL (≈ 9.49 µM)	≤ 0.06 µg/mL	2 µg/mL (≈ 1.19 µM)	> 64 µg/mL	> 64 µg/mL	0.125 µg/mL (≈ 0.0741 µM)	2 µg/mL (≈ 1.19 µM)	≤ 0.06 µg/mL	0.25 µg/mL (≈ 0.148 µM)	0.5 µg/mL (≈ 0.296 µM)	≤ 0.06 µg/mL	≤ 0.06 µg/mL	1 µg/mL (≈ 0.593 µM)	4 µg/mL (≈ 2.37 µM)	16 µg/mL (≈ 9.49 µM)	≤ 0.06 µg/mL	0.25 µg/mL (≈ 0.148 µM)	≤ 0.06 µg/mL	0.5 µg/mL (≈ 0.296 µM)	MIC [20]: ≤ 0.06 µg/mL
CNC(CC(C)C)C(=O)NC1C(=O)NC(CC(N)=O)C(=O)NC2C(=O)NC3C(=O)NC(C(=O)NC(C(=O)O)c4cc(O)cc(O)c4-c4cc3ccc4O)C(OC3CC(C)(N)C(O)C(C)O3)c3ccc(c(Cl)c3)Oc3cc2cc(c3OC2OC(CO)C(O)C(O)C2OC2CC(C)(NCc3ccc(Cc4ccccc4)cc3)C(O)C(C)O2)Oc2ccc(cc2Cl)C1O (stereo not shown) [Compound 50, 4-benzylbenzyl]	≤ 0.06 µg/mL	1 µg/mL (≈ 0.564 µM)	≤ 0.06 µg/mL	0.25 µg/mL (≈ 0.141 µM)	> 64 µg/mL	> 64 µg/mL	0.5 µg/mL (≈ 0.282 µM)	0.5 µg/mL (≈ 0.282 µM)	≤ 0.06 µg/mL	≤ 0.06 µg/mL	1 µg/mL (≈ 0.564 µM)	–	–	0.5 µg/mL (≈ 0.282 µM)	0.5 µg/mL (≈ 0.282 µM)	1 µg/mL (≈ 0.564 µM)	–	2 µg/mL (≈ 1.13 µM)	0.25 µg/mL (≈ 0.141 µM)	0.5 µg/mL (≈ 0.282 µM)	MIC [20]: ≤ 0.06 µg/mL; MIC (Pedicoccus acidilacti): 51 µg/mL (≈ 28.8 µM); MIC (Pediococcus pentosaceus): 64 µg/mL (≈ 36.1 µM); MIC (Leuconostoc lactis): 64 µg/mL (≈ 36.1 µM); MIC [3]: 64 µg/mL (≈ 36.1 µM); MIC (Lactobacillus confusus): 64 µg/mL (≈ 36.1 µM)
CNC(CC(C)C)C(=O)NC1C(=O)NC(CC(N)=O)C(=O)NC2C(=O)NC3C(=O)NC(C(=O)NC(C(=O)O)c4cc(O)cc(O)c4-c4cc3ccc4O)C(OC3CC(C)(N)C(O)C(C)O3)c3ccc(c(Cl)c3)Oc3cc2cc(c3OC2OC(CO)C(O)C(O)C2OC2CC(C)(NCc3ccc(C(c4ccccc4)c4ccccc4)cc3)C(O)C(C)O2)Oc2ccc(cc2Cl)C1O (stereo not shown) [Compound 46, 4-diphenylmethylbenzyl]	1 µg/mL (≈ 0.541 µM)	0.25 µg/mL (≈ 0.135 µM)	≤ 0.06 µg/mL	0.5 µg/mL (≈ 0.27 µM)	> 64 µg/mL	> 64 µg/mL	1 µg/mL (≈ 0.541 µM)	2 µg/mL (≈ 1.08 µM)	1 µg/mL (≈ 0.541 µM)	0.5 µg/mL (≈ 0.27 µM)	2 µg/mL (≈ 1.08 µM)	2 µg/mL (≈ 1.08 µM)	2 µg/mL (≈ 1.08 µM)	2 µg/mL (≈ 1.08 µM)	2 µg/mL (≈ 1.08 µM)	2 µg/mL (≈ 1.08 µM)	2 µg/mL (≈ 1.08 µM)	2 µg/mL (≈ 1.08 µM)	0.5 µg/mL (≈ 0.27 µM)	2 µg/mL (≈ 1.08 µM)	MIC [20]: ≤ 0.06 µg/mL
CNC(CC(C)C)C(=O)NC1C(=O)NC(CC(N)=O)C(=O)NC2C(=O)NC3C(=O)NC(C(=O)NC(C(=O)O)c4cc(O)cc(O)c4-c4cc3ccc4O)C(OC3CC(C)(N)C(O)C(C)O3)c3ccc(c(Cl)c3)Oc3cc2cc(c3OC2OC(CO)C(O)C(O)C2OC2CC(C)(NCc3ccc4c(c3)OCO4)C(O)C(C)O2)Oc2ccc(cc2Cl)C1O (stereo not shown) [Compound 48, 3,4-methylenedioxylbenzyl]	≤ 0.06 µg/mL	1 µg/mL (≈ 0.579 µM)	≤ 0.06 µg/mL	1 µg/mL (≈ 0.579 µM)	> 64 µg/mL	> 64 µg/mL	0.125 µg/mL (≈ 0.0724 µM)	2 µg/mL (≈ 1.16 µM)	≤ 0.06 µg/mL	≤ 0.06 µg/mL	0.25 µg/mL (≈ 0.145 µM)	≤ 0.06 µg/mL	≤ 0.06 µg/mL	1 µg/mL (≈ 0.579 µM)	2 µg/mL (≈ 1.16 µM)	8 µg/mL (≈ 4.63 µM)	≤ 0.06 µg/mL	1 µg/mL (≈ 0.579 µM)	≤ 0.06 µg/mL	0.25 µg/mL (≈ 0.145 µM)	MIC [20]: ≤ 0.06 µg/mL
CNC(CC(C)C)C(=O)NC1C(=O)NC(CC(N)=O)C(=O)NC2C(=O)NC3C(=O)NC(C(=O)NC(C(=O)O)c4cc(O)cc(O)c4-c4cc3ccc4O)C(OC3CC(C)(N)C(O)C(C)O3)c3ccc(c(Cl)c3)Oc3cc2cc(c3OC2OC(CO)C(O)C(O)C2OC2CC(C)(NCc3cccc(Oc4ccccc4)c3)C(O)C(C)O2)Oc2ccc(cc2Cl)C1O (stereo not shown) [Compound 49, 3-phenoxybenzyl]	≤ 0.06 µg/mL	1 µg/mL (≈ 0.563 µM)	≤ 0.06 µg/mL	0.25 µg/mL (≈ 0.141 µM)	> 64 µg/mL	> 64 µg/mL	0.5 µg/mL (≈ 0.282 µM)	1 µg/mL (≈ 0.563 µM)	≤ 0.06 µg/mL	≤ 0.06 µg/mL	2 µg/mL (≈ 1.13 µM)	0.125 µg/mL (≈ 0.0704 µM)	≤ 0.06 µg/mL	1 µg/mL (≈ 0.563 µM)	1 µg/mL (≈ 0.563 µM)	1 µg/mL (≈ 0.563 µM)	≤ 0.06 µg/mL	1 µg/mL (≈ 0.563 µM)	0.25 µg/mL (≈ 0.141 µM)	0.125 µg/mL (≈ 0.0704 µM)	MIC [20]: ≤ 0.06 µg/mL; MIC (Pedicoccus acidilacti): 55 µg/mL (≈ 31 µM); MIC (Pediococcus pentosaceus): 64 µg/mL (≈ 36.1 µM); MIC (Leuconostoc lactis): 64 µg/mL (≈ 36.1 µM); MIC [3]: 64 µg/mL (≈ 36.1 µM); MIC (Lactobacillus confusus): 64 µg/mL (≈ 36.1 µM)
CNC(CC(C)C)C(=O)NC1C(=O)NC(CC(N)=O)C(=O)NC2C(=O)NC3C(=O)NC(C(=O)NC(C(=O)O)c4cc(O)cc(O)c4-c4cc3ccc4O)C(OC3CC(C)(N)C(O)C(C)O3)c3ccc(c(Cl)c3)Oc3cc2cc(c3OC2OC(CO)C(O)C(O)C2OC2CC(C)(NCc3cc(-c4ccccc4)nc4ccc(OC)cc34)C(O)C(C)O2)Oc2ccc(cc2Cl)C1O (stereo not shown) [Compound 45, 4-[2-phenyl-6-methoxy]quinoylmethyl]	0.125 µg/mL (≈ 0.0679 µM)	0.5 µg/mL (≈ 0.272 µM)	≤ 0.06 µg/mL	1 µg/mL (≈ 0.544 µM)	> 64 µg/mL	> 64 µg/mL	1 µg/mL (≈ 0.544 µM)	16 µg/mL (≈ 8.7 µM)	0.5 µg/mL (≈ 0.272 µM)	≤ 0.06 µg/mL	2 µg/mL (≈ 1.09 µM)	0.25 µg/mL (≈ 0.136 µM)	0.25 µg/mL (≈ 0.136 µM)	8 µg/mL (≈ 4.35 µM)	16 µg/mL (≈ 8.7 µM)	8 µg/mL (≈ 4.35 µM)	0.5 µg/mL (≈ 0.272 µM)	1 µg/mL (≈ 0.544 µM)	0.25 µg/mL (≈ 0.136 µM)	1 µg/mL (≈ 0.544 µM)	MIC [20]: ≤ 0.06 µg/mL
